From US12465607B2, “ALK inhibitors for treatment of ALK-negative cancer and plasma cell-mediated diseases” (UNIVERSITETET I OSLO, priority 2019, dated 2025)

What was measured:
L363 cells = assay: ER stress in L363 cells (spliced vs non-spliced XBP1, ATF4; RT-PCR); type: cell-based, human; settings: 5 μM, 4, 8 and 12 h
Experimental: A, L363 cells were treated with 5 μM crizotinib and the expression of spliced vs non-spliced XBP1 and ATF4 was determined 4, 8 and 12 h post-treatment. Splicing of XBP1 and accumulation of ATF4 are signs of the induction of ER stress. B, Bortezomib-resistant L363aBTZ cells were treated with 5 μM crizotinib and the expression of spliced vs non-spliced XBP1 and ATF4 was determined at 4, 8 and 12 h post-treatment. C, HeLa cells expressing inducible IgM (heavy and light chain) were treated with mifepristone to induce IgM expression over a period of 2 weeks. Afterwards, cells were treated with 1 μM crizotinib for 24 h followed by lysis and immunoblotting against spliced XBP1 to measure ER stress. + and − indicate cells with or without mifepristone treatment, respectively. Induced cells are considered hypersecretory and non-induced cells have a normal level of secretion. Numbers above the blot show the quantification of densitometric measurements from three independent experiments ±SD.
Total RNA was isolated from cell lines using Trizol (Ambion/Thermo Fisher Scientific, MA, USA) and Direct-zol RNA MiniPrep (Zymo Research, CA, USA). 500 ng of total RNA was reverse transcribed using High Capacity cDNA Reverse Transcription kit (Applied Biosystems/Thermo Fisher Scientific, MA, USA) according to the manufacturer's instructions. […]

[1] = system: HeLa cells expressing inducible IgM; assay: Apoptosis (caspase 3 cleavage immunoblot) in HeLa cells expressing inducible IgM; type: cell-based; settings: 1 μM, 24 h
Experimental: (§1) In A, HeLa cells expressing inducible IgM (heavy and light chain) were treated with mifepristone to induce IgM expression over a period of 2 weeks. Afterwards, cells were treated with 1 μM crizotinib for 24 h followed by lysis and immunoblotting for caspase 3. […] Cleavage of caspase 3 is indicative of apoptosis induction. + and − indicate cells with or without mifepristone treatment, respectively. B, Concentration-response curves for the effect of crizotinib treatment (24 h) on the viability of three different myeloma cell lines. Results are the means of three independent experiments. C, Expression levels of LTK and ALK mRNA in the indicated myeloma cell lines determined by qPCR.
HeLa cells were cultured in DMEM (GIBCO) supplemented with 10% FCS and 1% Penicillin/Streptomycin (GIBCO). For overexpression of plasmids, cells were transfected using either Fugene 6 or with TransIT-LT1 (Mirus). For knockdown experiments, cells were reverse transfected with 10 nM siRNA (final concentration) using HiPerfect (Qiagen) according to the manufacturer's instructions.
Cells were washed twice with PBS and collected in lysis buffer (50 mM Tris-HCl, pH7.4; 1 mM EDTA, 100 mM NaCl, 0.1% SDS and 1% NP-40) supplemented with proteinase and phosphatase inhibitor (Pierce Protease and Phosphatase Inhibitor Mini Tablets, EDTA-free). […]

ARH77 = assay: Myeloma cell line viability, CCK-8, 24 hr; type: cell-based, human; settings: ARH77, 24 h
Experimental: as §1
The cell lines used were the human multiple myeloma cell lines L363 (DSMZ catalogue number ACC 49), AMO-1 (DSMZ catalogue number ACC 538) and ARH-77 (ATCC CRL-1621).
Multiple myeloma cell lines were maintained in RPMI-1640 culture medium (Sigma-Aldrich, Buchs, Switzerland) supplemented with 10% heat-inactivated fetal bovine serum (FBS), 100 μg/ml streptomycin and 100 U/ml penicillin/streptomycin (Sigma-Aldrich, Buchs, Switzerland). […]
The viability of the cells was determined 24 hr post treatment using Cell Counting Kit-8 (CCK-8; MedChemExpress, NJ, USA) according to the manufacturer's instructions.

HeLa cells = assay: ER-to-Golgi trafficking in HeLa cells (ERES staining, mannosidase-II RUSH reporter); type: cell-based; settings: RUSH reporter 20 min after biotin
Experimental: In A, HeLa cells expressing flag-tagged LTK were treated with 1 μM of crizotinib or ceritinib for 30 minutes. Afterwards, cells were lysed and immunoblotted against phosphorylated LTK, which is used as a surrogate for the active form of LTK. […] B, HeLa cells were treated with 1 μM ceritinib for 30 minutes followed by fixation and staining for Sec31A to label ERES. Cells were imaged by confocal microscopy and ERES were counted using ImageJ. C, HeLa cells stably expressing mCherry-tagged mannosidase-II RUSH reporter. Cells were treated with biotin to release the reporter from the ER. After 20 min, a time point where most of the reporter has reached the Golgi, cells were fixed and immunostained for GM130 to label the Golgi apparatus. […] D, IgA secreting AMO-1 cells were treated for 3 h with the indicated doses of crizotinib and the amount of IgA in cell supernatant was determined by ELISA.

[2] = system: CD138+ multiple myeloma cells; assay: Viability of patient CD138+ multiple myeloma cells, CellTiterGlo 72 hr; type: cell-based; settings: Homo sapiens, Multiple myeloma cell, patient-derived CD138+ multiple myeloma cells
Experimental: Viability was measured by CellTiterGlo.
Seven multiple myeloma patient samples were included. Patients were due for treatment after second relapse (patient number 1701), third relapse (2101, 2021, 1802, 9041, 2504) or fourth relapse (2201).
Bone marrow mononuclear cells (BMMCs) were prepared from patient bone marrow aspirates by Lymphoprep density gradient centrifugation. After CD8 depletion by Dynabeads (Life Technologies) BMMCs were subsequently stimulated by expanding Th cells in the presence of Human T-Activator CD3/CD28 Dynabeads (Life Technologies) and 100 U/ml human interleukin-2 (hIL-2, Roche, Mannheim, Germany). After 48 h, BMMCs were subjected to CD138+ enrichment to isolate multiple myeloma plasma cells using MACS CD138+ microbeads (Milteny Biotec, Bergisch Gladbach, Germany).
6 crizotinib concentrations were tested, in 10-fold dilutions covering a 0.1-10,000 nM concentration range (plates dispensed by an Echo acoustic dispenser, LabCyte Inc., San Jose, CA, USA).
The plate was incubated in a humidified environment at 37° C. and 5% CO2. Cell viability was determined after 72 hr using the CellTiterGlo (Promega, Madison, WI, USA) ATP assay according to the manufacturer's instructions and using an Envision Xcite plate reader (Perkin Elmer, Shelton, CT, USA). […]

L363wt plasma cell lines = assay: Intrafemoral Luciferase+ L363wt plasma cell line xenograft in NSG mice, IVIS imaging; type: in vivo; settings: 50 mg/kg, orally, daily, 7 days
Experimental: Luciferase^+ L363wt plasma cell lines were injected intrafemorally into immunocompromised NSG mice. After 10 days, mice were treated with crizotinib (50 mg/kg, orally, daily) every day for 7 days.
Mice were imaged on an IVIS optical imager on days 10, 14 and 17. Ventral aspects of 3 (of 4) mice are shown. Mice received vehicle (top) or crizotinib (bottom).

[3] = system: Hepatocellular carcinoma cells (HepG2); assay: Apoptosis (cleaved caspase 3 immunoblot) in HepG2 cells with doxorubicin; type: cell-based; settings: 1 μM crizotinib with 1, 2 and 5 μM doxorubicin, 24 h
Experimental: In B, Hepatocellular carcinoma cells (HepG2) were treated with DMSO (untreated) or with increasing concentrations (1, 2 and 5 μM) of doxorubicin for 24 h and apoptosis was assessed by immunoblotting for cleaved caspase 3. […] Cells were also treated with the same concentrations of doxorubicin in the presence of 1 μM crizotinib for 24 h.
Cells were washed twice with PBS and collected in lysis buffer (50 mM Tris-HCl, pH7.4; 1 mM EDTA, 100 mM NaCl, 0.1% SDS and 1% NP-40) supplemented with proteinase and phosphatase inhibitor (Pierce Protease and Phosphatase Inhibitor Mini Tablets, EDTA-free). Lysates were incubated on ice for 10 minutes followed by clearing centrifugation at 20,000×g at 4° C. for 10 min. Supernatants were transferred into fresh tubes and reducing loading buffer was added. Lysates were subjected to SDS-PAGE and transferred onto a nitrocellulose membrane using semi-dry transfer. The membrane was blocked (in ROTI buffer (Roth) or 5% milk in PBS with 0.1% tween) and probed with the appropriate primary antibodies. Subsequently membranes were incubated with horseradish peroxidase-conjugated secondary antibody. Immunoblots were developed using a chemiluminescence reagent (ECL clarity, BioRad) and imaged using ChemiDoc (BioRad).

IC50 [2]: 800 to 5000 nM
Structure (SMILES): C[C@@H](Oc1cc(-c2cnn(C3CCNCC3)c2)cnc1N)c1c(Cl)ccc(F)c1Cl [crizotinib, 3-[(1R)-1-(2,6-dichloro-3-fluorophenyl)ethoxy]-5-(1-piperidin-4-ylpyrazol-4-yl)pyridin-2-amine]
ER stress (splicing of XBP1, induction of ATF4) (L363 cells): induced ER stress
apoptosis (caspase 3 cleavage) ([1]; HeLa cells with chronic increase of secretory burden (IgM 2 weeks)): marked increase in apoptosis
apoptotic response (caspase 3 cleavage) ([1]; non-secretory HeLa cells): did not show any apoptotic response
cell viability (ARH77): clear reductions in cell viability
ER-to-Golgi trafficking (HeLa cells): less of the reporter in the Golgi region
mice with dramatically reduced signals from plasma cells (L363wt plasma cell lines): 3 of 4
plasma cell density (luciferase dependent signals) (L363wt plasma cell lines): reduced plasma cell density
sensitisation to apoptosis (cleaved caspase 3) [3]: sensitised the HepG HCC cells to apoptosis
